Measurements: publication PMC6514996, “Discovery of Potent and Selective Halogen-Substituted Imidazole-Thiosemicarbazides for Inhibition of Toxoplasma gondii Growth In Vitro via Structure-Based Design” (Molecules, 2019)
≈ marks a conversion by molar mass, not a printed value.

Key:
[1] = Lipophilicity by HPLC (logkw extrapolation, OECD guideline); type: physicochemical; details: Phenomenex Synergi 4 µm Polar-RP column, methanol:water, calibration with seven standards
Method: HPLC experiments were performed using a chromatograph equipped with an Elite LaChrom L-2130 gradient pump, L-2455 DAD detector, L-2300 column oven, and L-2200 autosampler (Hitachi-Merck, Darmstadt, Germany). The tested samples were applied into the Phenomenex Synergi 4 µm Polar-RP chromatographic column (Phenomenex, Torrance, CA, USA) (150 mm length, 4.6 mm i.d.). Mobile phases were degassed using a built-in membrane degasser.
Chromatographic analysis: 5 µL of each sample (0.1% methanolic solutions) was applied into the chromatographic column and chromatograms were developed at a flow rate of 1.0 mL min^−1 in the isocratic mode using various concentrations of methanol in the binary polar mobile phase: methanol:water (40:60, 45:55, 50:50, 55:45, 60:40, 65:35, and 70:30 (v/v)) Chromatograms were detected at 254 nm. All experiments were repeated in triplicate, and the final results were their arithmetic mean. Dead time was measured for uracil (Calbiochem—Merck, Darmstadt, Germany). All the experiments were performed at ambient temperature.
The chromatographic lipophilicity parameter (logkw) for 5–16 was obtained by the extrapolation of the retention parameter logk to pure water, according to the equation: logk = logkw − S × φ(1) where logkw is the value of the retention factor of a substance in pure water, S is the slope of the regression curve, and φ is the concentration (v/v) of methanol in the mobile phase.
Subsequently, logPHPLC parameters for 5–16 were calculated according to OECD guidelines, based on the equation obtained for seven standards with known lipohilicity parameters (logPo/w): logPo/w = 1.0239(± 0.03)·logkw − 0.1541(± 0.08); n = 7; r = 0.9976; se = 0.08; F = 1047.8(2)

[2] = Cytotoxicity against L929 cells, MTT cell viability assay (ISO 10993-5:2009(E)); type: cell-based; details: mouse, L929 mouse fibroblast cells; for viability at 24 h, 5 µg/mL / viability at 24 h, 25 µg/mL / viability at 24 h, 50 µg/mL / viability at 24 h, 125 µg/mL / viability at 24 h, 250 µg/mL / viability at 24 h, 500 µg/mL / viability at 24 h, 1000 µg/mL: read-out: viability of L929 cells (% of viable cells); for CC50 at 24 h: 50% cell proliferation inhibition, L929 cells
Text: Since T. gondii is an obligate intracellular parasite that requires invasion of mammalian host cells to proliferate, compounds that inhibit parasite growth might be toxic to host cells as well. Therefore, as an initial indicator for host cell toxicity, we firstly evaluated compounds 5–16 for their ability to inhibit the growth of mouse fibroblast (L929) cells line according to the international standards: ISO 10993-5:2009(E).
To calculate the reduction of viability compared to the untreated blank the equation was used: viability (%) = 100% × sample OD570 (the mean value of the measured optical density of the treated cells)/blank OD570 (the mean value of the measured optical density of the untreated cells). CC50—represents the concentration of tested compounds that was required for a 50% cell proliferation inhibition in vitro. The effect of the tested compounds on the cell lines was measured using MTT assay according to the international standard: ISO 10993-5:2009(E). CC50 values were determined based on the plotted curves using GraphPad Prism program (version 8.0.1).
Cell culture: the L929 mouse fibroblast (ATTC® CCL-1™) was routinely cultured in IMDM (Iscove’s Modified Dulbecco Medium, Biowest, Nuaille, France), supplemented with 10% HIFBS, 100 U/mL penicillin and 100 μg/mL streptomycin. Cells were trypsinized twice a week and seeded at a density of 1 × 10^6 per T25 cell culture flask and incubated for 24–48 h in a 37 °C and 10% CO2 to achieve a confluent monolayer.
Cell viability assay: Assays were performed according to international standards: ISO 10993-5:2009(E), Biological evaluation of medical devices, Part 5: Tests for in vitro cytotoxicity. Cell viability were evaluated using the tetrazolium salt [3-(4,5-dimethylthiazol-2-yl)-2,5-diphenyltetrazolium bromide] (Sigma) and mouse fibroblasts L929 cells. For this assay we used only the culture medium, RPMI 1640, without phenol red (Biowest) supplemented with 10% HIFBS, 2 mM L-glutamine (Sigma), 100 U/mL penicillin, 100 μg/mL streptomycin. Shortly after, a 1 × 10^4/well of L929 cells were placed into 96-well plates and incubated in 37 °C and 10% CO2. Afterwards, an old culture medium was replaced by 100 μL of compounds and drugs dilutions in culture medium and the cells were treated for 24 h. Moreover, cells were treated with a 4.0–0.03% concentration of DMSO and 1M NaOH as a compound and drugs solvent (data not shown). Then, 50 μL of 1 mg/mL of MTT solution in RPMI 1640 without phenol red was added to each well and incubated 2h (37 °C, 10% CO2). Next, cell culture medium was aspirated cautiously and 150 μL of DMSO was added to each well, the plates were gently mixed. Then 25 μL 0.1M glycine buffer (pH = 10.5) (Sigma) was added. The optical density at 570 nm on the ELISA reader (Multiskan EX, Labsystems, Vienna, VA, USA), was read. The results were expressed as a percentage of viability compared to untreated cells. All experiments were performed in triplicate. For comparison reasons, two compounds known from our previous studies (6 and 9) were included in the bioassay performed for compounds 5, 7, 8, 9–16.

[3] = test system: Toxoplasma gondii RH strain tachyzoites (ATCC PRA 310); experiment: Influence on T. gondii proliferation in Hs27 cells, [3H]-uracil incorporation assay; type: cell-based; details: for IC50: Toxoplasma gondii, HS27, 50% inhibition of T. gondii RH proliferation in vitro, Hs27 host cells, [3H]-uracil incorporation; for SR (selectivity ratio): ratio of CC50 (L929) to IC50 (T. gondii)

Structure (SMILES) | chromatographic logP [1] | viability at 24 h, 5 µg/mL [2] [%] | viability at 24 h, 25 µg/mL [2] [%] | viability at 24 h, 50 µg/mL [2] [%] | viability at 24 h, 125 µg/mL [2] [%] | viability at 24 h, 250 µg/mL [2] [%] | viability at 24 h, 500 µg/mL [2] [%] | viability at 24 h, 1000 µg/mL [2] [%] | CC50 at 24 h [2] [µg/mL] | melting point [°C] | IC50 [3] [µg/mL] | SR (selectivity ratio) [3]
Cc1nc[nH]c1C(=O)NNC(=S)Nc1ccc(I)cc1 [Compound 16, 4-(4-Iodophenyl)-1-(4-methylimidazol-5-oyl)thiosemicarbazide] | 3.95 | 96.7 | 84.4 | 66.2 | 68.1 | 49.9 | 16.3 | 13.5 | 195 (≈ 486 µM) | 225 to 227 | 22 (≈ 54.9 µM) | 8.86
Cc1nc[nH]c1C(=O)NNC(=S)Nc1cccc(I)c1 [Compound 15, 4-(3-Iodophenyl)-1-(4-methylimidazol-5-oyl)thiosemicarbazide] | 3.98 | 96.7 | 87.3 | 70.8 | 66.2 | 54 | 8.53 | 8.49 | 197 (≈ 492 µM) | 210 to 212 | 10.3 (≈ 25.7 µM) | 19.16
Cc1nc[nH]c1C(=O)NNC(=S)Nc1ccccc1Br [Compound 11, 4-(2-Bromophenyl)-1-(4-methylimidazol-5-oyl)thiosemicarbazide] | 3.23 | 94.7 | 93 | 87.5 | 76.3 | 70 | 47.1 | 29.8 | 495 (≈ 1400 µM) | 205 to 207 | 27.6 (≈ 78.1 µM) | 17.91
